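Compound exposure: 48 hours, 5 concentrations, 96-well plates. TGI: concentration producing complete growth inhibition.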
Legend:
Assay in all cases: NCI-60 cell line screen, 48 h
[1] = test system: UACC-62 melanoma
[2] = test system: OVCAR-5 ovarian
[3] = test system: CAKI-1 renal
[4] = test system: SR leukemia
[5] = test system: DLD-1 colon
[6] = test system: DMS 273 small cell lung
[7] = test system: OVCAR-8 ovarian
[8] = test system: DMS 114 small cell lung
[9] = test system: LOX IMVI melanoma
[10] = test system: SK-MEL-28 melanoma
[11] = test system: MALME-3M melanoma
[12] = test system: RPMI-8226 leukemia
[13] = test system: SF-295 CNS
[14] = test system: UACC-257 melanoma
[15] = test system: NCI-H522 lung
[16] = test system: A498 renal
[17] = test system: TK-10 renal
[18] = test system: 786-0 renal
[19] = test system: HCT-15 colon
[20] = test system: SW-620 colon
[21] = test system: SK-MEL-5 melanoma
[22] = test system: COLO 205 colon
[23] = test system: HOP-92 NSCLC
[24] = test system: OVCAR-3 ovarian
[25] = test system: K-562 leukemia
[26] = test system: HCC-2998 colon
[27] = test system: M19-MEL melanoma
[28] = test system: HT29 colon
[29] = test system: CCRF-CEM leukemia
[30] = test system: LXFL 529 NSCLC
[31] = test system: SNB-78 CNS
[32] = test system: ACHN renal
[33] = test system: HL-60(TB) leukemia
[34] = test system: A549 NSCLC
[35] = test system: SK-MEL-2 melanoma
[36] = test system: IGROV1 ovarian
[37] = test system: HOP-18 NSCLC
[38] = test system: KM20L2 colon
[39] = test system: HCT-116 colon
[40] = test system: SF-268 CNS
[41] = test system: KM12 colon
[42] = test system: M14 melanoma
[43] = test system: SNB-19 CNS
[44] = test system: SK-OV-3 ovarian
[45] = test system: NCI-H23 lung
[46] = test system: SF-539 CNS
[47] = test system: UO-31 renal
[48] = test system: HOP-62 NSCLC
[49] = test system: SNB-75 CNS
[50] = test system: SN12C renal
[51] = test system: NCI-H460 lung
[52] = test system: U251 CNS
[53] = test system: XF 498 CNS
[54] = test system: RXF 393 renal
[55] = test system: EKVX NSCLC
[56] = test system: NCI-H226 lung
[57] = test system: MOLT-4 leukemia
[58] = test system: OVCAR-4 ovarian

In the case of `CC1=CC2C(C=C1)S(=O)(=O)N1CC21c1ccccc1` (stereo not drawn), the TGI [1] is reported as greater than 100 µM, the TGI [2] is reported as greater than 100 µM and the TGI [3] is reported as greater than 100 µM. The TGI [4] was greater than 100 µM, the TGI [5] was greater than 100 µM and the TGI [6] was greater than 100 µM. It also gave a TGI [7] greater than 100 µM, a TGI [8] greater than 100 µM and a TGI [9] greater than 100 µM. The TGI [10] was greater than 100 µM, the TGI [11] was greater than 100 µM and the TGI [12] was greater than 100 µM. The TGI [13] was greater than 100 µM, the TGI [14] was greater than 100 µM and the TGI [15] was greater than 100 µM. The TGI [16] was greater than 100 µM, the TGI [17] was greater than 100 µM and the TGI [18] was greater than 100 µM. For the same compound, the TGI [19] was greater than 100 µM, the TGI [20] was greater than 100 µM and the TGI [21] was greater than 100 µM. The TGI [22] was greater than 100 µM, the TGI [23] was greater than 100 µM and the TGI [24] was greater than 100 µM. It also gave a TGI [25] greater than 100 µM, a TGI [26] greater than 100 µM and a TGI [27] greater than 100 µM. It also gave a TGI [28] greater than 100 µM, a TGI [29] greater than 100 µM and a TGI [30] greater than 100 µM. The TGI [31] was greater than 100 µM, the TGI [32] was greater than 100 µM and the TGI [33] was greater than 100 µM. For the same compound, the TGI [34] was greater than 100 µM, the TGI [35] was greater than 100 µM and the TGI [36] was greater than 100 µM. The TGI [37] was greater than 100 µM, the TGI [38] was greater than 100 µM and the TGI [39] was greater than 100 µM. It also gave a TGI [40] greater than 100 µM, a TGI [41] greater than 100 µM and a TGI [42] greater than 100 µM. It also gave a TGI [43] greater than 100 µM, a TGI [44] greater than 100 µM and a TGI [45] greater than 100 µM. For the same compound, the TGI [46] was greater than 100 µM, the TGI [47] was greater than 100 µM and the TGI [48] was greater than 100 µM. For the same compound, the TGI [49] was greater than 100 µM, the TGI [50] was greater than 100 µM and the TGI [51] was greater than 100 µM. The TGI [52] was greater than 100 µM.

In the case of `COCC(C)(C)N=CN1Cc2cc3ccccc3nc2C1`, the TGI [1] is reported as greater than 100 µM, the TGI [3] is reported as greater than 100 µM and the TGI [4] is reported as greater than 100 µM. For the same compound, the TGI [5] was greater than 100 µM, the TGI [7] was greater than 100 µM and the TGI [53] was greater than 100 µM. For the same compound, the TGI [8] was greater than 100 µM, the TGI [10] was greater than 100 µM and the TGI [11] was greater than 100 µM. For the same compound, the TGI [54] was greater than 100 µM, the TGI [12] was greater than 100 µM and the TGI [13] was greater than 100 µM. The TGI [14] was greater than 100 µM, the TGI [15] was greater than 100 µM and the TGI [17] was greater than 100 µM. The TGI [18] was greater than 100 µM, the TGI [19] was greater than 100 µM and the TGI [20] was greater than 100 µM. The TGI [21] was greater than 100 µM, the TGI [55] was greater than 100 µM and the TGI [56] was greater than 100 µM. For the same compound, the TGI [22] was greater than 100 µM, the TGI [23] was greater than 100 µM and the TGI [24] was greater than 100 µM. For the same compound, the TGI [25] was greater than 100 µM, the TGI [57] was greater than 100 µM and the TGI [27] was greater than 100 µM. For the same compound, the TGI [28] was greater than 100 µM, the TGI [29] was greater than 100 µM and the TGI [58] was greater than 100 µM. It also gave a TGI [32] greater than 100 µM, a TGI [33] greater than 100 µM and a TGI [34] greater than 100 µM. It also gave a TGI [35] greater than 100 µM, a TGI [36] greater than 100 µM and a TGI [37] greater than 100 µM. The TGI [38] was greater than 100 µM, the TGI [39] was greater than 100 µM and the TGI [40] was greater than 100 µM. For the same compound, the TGI [41] was greater than 100 µM, the TGI [42] was greater than 100 µM and the TGI [43] was greater than 100 µM. It also gave a TGI [44] greater than 100 µM, a TGI [45] greater than 100 µM and a TGI [46] greater than 100 µM. For the same compound, the TGI [47] was greater than 100 µM, the TGI [48] was greater than 100 µM and the TGI [49] was greater than 100 µM. The TGI [50] was greater than 100 µM, the TGI [51] was greater than 100 µM and the TGI [52] was greater than 100 µM.

Work on `O=C1c2ccccc2C(=O)c2cc3c(cc21)CS(=O)C3` yielded a TGI [1] greater than 100 µM, a TGI [2] greater than 100 µM and a TGI [3] greater than 100 µM. For the same compound, the TGI [5] was greater than 100 µM, the TGI [6] was greater than 100 µM and the TGI [7] was greater than 100 µM. The TGI [8] was greater than 100 µM, the TGI [9] was greater than 100 µM and the TGI [10] was greater than 100 µM. For the same compound, the TGI [11] was greater than 100 µM, the TGI [54] was greater than 100 µM and the TGI [12] was greater than 100 µM. It also gave a TGI [13] greater than 100 µM, a TGI [14] greater than 100 µM and a TGI [15] greater than 100 µM. The TGI [17] was greater than 100 µM, the TGI [18] was greater than 100 µM and the TGI [20] was greater than 100 µM. For the same compound, the TGI [21] was greater than 100 µM, the TGI [55] was greater than 100 µM and the TGI [22] was greater than 100 µM. For the same compound, the TGI [23] was greater than 100 µM, the TGI [24] was greater than 100 µM and the TGI [25] was greater than 100 µM. It also gave a TGI [26] greater than 100 µM, a TGI [57] greater than 100 µM and a TGI [27] greater than 100 µM. The TGI [28] was greater than 100 µM, the TGI [29] was greater than 100 µM and the TGI [30] was greater than 100 µM. For the same compound, the TGI [58] was greater than 100 µM, the TGI [32] was greater than 100 µM and the TGI [33] was greater than 100 µM. The TGI [34] was greater than 100 µM, the TGI [35] was greater than 100 µM and the TGI [36] was greater than 100 µM. It also gave a TGI [37] greater than 100 µM, a TGI [38] greater than 100 µM and a TGI [40] greater than 100 µM. For the same compound, the TGI [41] was greater than 100 µM, the TGI [42] was greater than 100 µM and the TGI [43] was greater than 100 µM. It also gave a TGI [44] greater than 100 µM, a TGI [45] greater than 100 µM and a TGI [46] greater than 100 µM. The TGI [47] was greater than 100 µM, the TGI [48] was greater than 100 µM and the TGI [49] was greater than 100 µM. The TGI [50] was 43.3 µM, the TGI [51] was greater than 100 µM and the TGI [52] was greater than 100 µM.

`COC(=O)C(=O)Cc1nc2ccccc2s1` was tested, and the TGI [1] was greater than 100 µM, the TGI [2] was greater than 100 µM and the TGI [3] was greater than 100 µM. It also gave a TGI [4] greater than 100 µM, a TGI [5] greater than 100 µM and a TGI [6] greater than 100 µM. The TGI [7] was greater than 100 µM, the TGI [8] was greater than 100 µM and the TGI [9] was greater than 100 µM. The TGI [10] was greater than 100 µM, the TGI [11] was greater than 100 µM and the TGI [54] was greater than 100 µM. It also gave a TGI [13] greater than 100 µM, a TGI [14] greater than 100 µM and a TGI [15] greater than 100 µM. The TGI [16] was greater than 100 µM, the TGI [17] was greater than 100 µM and the TGI [18] was greater than 100 µM. The TGI [19] was greater than 100 µM, the TGI [20] was greater than 100 µM and the TGI [21] was greater than 100 µM. For the same compound, the TGI [55] was greater than 100 µM, the TGI [56] was greater than 100 µM and the TGI [22] was greater than 100 µM. For the same compound, the TGI [23] was greater than 100 µM, the TGI [24] was greater than 100 µM and the TGI [25] was greater than 100 µM. The TGI [26] was greater than 100 µM, the TGI [57] was greater than 100 µM and the TGI [27] was greater than 100 µM. The TGI [28] was greater than 100 µM, the TGI [29] was greater than 100 µM and the TGI [30] was greater than 100 µM. For the same compound, the TGI [31] was greater than 100 µM, the TGI [58] was greater than 100 µM and the TGI [32] was greater than 100 µM. The TGI [33] was greater than 100 µM, the TGI [34] was greater than 100 µM and the TGI [35] was greater than 100 µM. It also gave a TGI [36] greater than 100 µM, a TGI [37] greater than 100 µM and a TGI [38] greater than 100 µM. The TGI [39] was greater than 100 µM, the TGI [40] was greater than 100 µM and the TGI [42] was greater than 100 µM. For the same compound, the TGI [43] was greater than 100 µM, the TGI [44] was greater than 100 µM and the TGI [45] was greater than 100 µM. The TGI [46] was greater than 100 µM, the TGI [47] was greater than 100 µM and the TGI [48] was greater than 100 µM. For the same compound, the TGI [49] was greater than 100 µM, the TGI [50] was greater than 100 µM and the TGI [52] was greater than 100 µM.
